Patent US10744188B2, “High osteocalcin microcrystalline hydroxyapatite for calcium supplement” (Waitaki Biosciences, priority 2013, dated 2020)
“Also recorded” adds a separate entry of the source. Structures can show the parent of a compound that is named as a salt.

Assays:
[1] = blood ionized calcium concentration after ingestion of calcium supplement (clinical tests, FIG. 1)
Excerpt: For some time microcrystalline hydroxyapatite (MCHA) manufactured from animal bones has been used as a slightly unconventional calcium supplement. Considering that bone mineral is largely calcium phosphate in the form of hydroxyapatite, it seems logical to use MCHA as a source of bone calcium. However, there can be some difficulty in purifying MCHA from native bones because there is considerable excess protein and lipid that must be removed to provide a stable as well as readily digestible product. As might be imagined there is considerable variation in the process parameters for making an MCHA product. In a study intended to compare MCHA to conventional calcium supplements, the inventors analyzed MCHA produced using varied protocols. They were surprised to discover that depending on how the MCHA is manufactured, its rate of bioabsorption changes quite dramatically. After considerable experimentation, the inventors developed the current product which was then compared to calcium carbonate and calcium citrate in both an absorption (measured by blood calcium concentration) and a bone mineralization/density study.
However, it must be kept in mind that the blood calcium concentration is maintained by withdrawing calcium from the bones if the dietary supply is insufficient.
In FIG. 1 the blood levels of ionized calcium of two different MHCA preparations (see below for preparation details) are compared to blood calcium levels provided by other calcium supplements.

[2] = 90 day study of bone calcium level and markers of bone mineralization and turnover; type: in vivo; details: 90 day experimental duration

Row | Compound | blood ionized calcium level after ingestion ([1]; in vivo) | bone calcium level and other markers of bone mineralization and turnover, compared with calcium-free placebo [2] | bone calcium level and other markers of bone mineralization and turnover, supplements compared with each other [2] | duration of spiking of blood calcium concentration ([1]; after ingestion) | blood ionized calcium level after ingestion ([1]; compared with calcium-free placebo/control) | blood ionized calcium level after ingestion ([1]; human, in vivo) | duration of spiking of blood calcium concentration ([1]; human, in vivo)
1 | microcrystalline hydroxyapatite [MCHA] | not statistically significantly different from the calcium-free placebo | – | – | – | – | – | –
2 | O=C([O-])[O-].[Ca+2] [calcium carbonate] | – | statistically significantly different from the calcium-free placebo | not statistically significantly different from each other | ca. 8 hour | spike above the normal 1 mM concentration; also recorded: rapid increase in ionized blood calcium | – | –
3 | O=C(O)CC(O)(CC(=O)O)C(=O)O [calcium citrate] | rapid increase in ionized blood calcium | statistically significantly different from the calcium-free placebo | not statistically significantly different from each other | – | – | spike above the normal 1 mM concentration | ca. 8 hour
